Assay results from patent US20160045505A1, “COMPOUNDS AND COMPOSITIONS FOR THE TREATMENT OF PARASITIC DISEASES” (NOVARTIS AG, priority 2013, published 2016).
pEC50: −log10 of the molar value. Read-outs that look alike come from different tables or passages of the source.

Legend:
[1] = tested on: Leishmania donovani axenic amastigote parasites; assay: Leishmania donovani axenic amastigote proliferation assay (Cell TiterGlo luminescence, 2 day incubation); format: cell-based; conditions: Leishmania donovani, read-out: L. donovani amastigotes EC50
[2] = tested on: Trypanosoma brucei Lister 427 strain, bloodstream form; assay: Assay for proliferation of kinetoplastid parasite Trypanosoma brucei (Cell Titer Glo, 48 hours); format: cell-based; conditions: Trypanosoma brucei, read-out: T. brucei EC50
How it was run: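 Bloodstream-form T. brucei Lister 427 in HMI-9 medium was exposed to compound (DMSO vehicle) for 48 hours at 37° C, 5% CO2. Parasite growth was read as ATP by CellTiter-Glo luminescence, with EC50 calculated from percent inhibition.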

[3] = tested on: L. donovani HU3 strain in mouse peritoneal macrophages; assay: Assay for proliferation of Leishmania parasites in infected mouse peritoneal macrophages (SybrGreen staining, high-content imaging, 5 days); format: cell-based, Leishmania donovani; conditions: Leishmania donovani, Peritoneal macrophage, L. donovani in mouse peritoneal macrophages, read-out: L. donovani Macrophage EC50
[4] = tested on: Trypanosoma cruzi amastigotes (Tulahuen strain expressing Lac-Z) cultured in 3T3 fibroblast cells; assay: microbe, parasite or virus in culture; format: cell-based; conditions: Trypanosoma cruzi, TULAHUEN, Fibroblast; for pEC50: T. cruzi amastigotes in 3T3 fibroblast cells, read-out: T cruzi EC50
[5] = axenic amastigotes, inhibition of proliferation
[6] = T. brucei Lister 427 bloodstream form, inhibition of proliferation
[7] = T. brucei Lister 427 bloodstream form

| SMILES | pEC50 [1, 5] | pEC50 [2, 6] | pEC50 ([3]; inhibition of proliferation) | pEC50 ([4]; inhibition of proliferation) | pEC50 ([1]; L. donovani axenic amastigotes) | pEC50 [2, 7] | pEC50 [3] | pEC50 [4] | EC50 ([4]; read-out: T cruzi EC50 (μM)) | pEC50 [2] |
| --- | --- | --- | --- | --- | --- | --- | --- | --- | --- | --- |
| CC(C)OC(=O)Nc1cnc2nc(-c3cc(NC(=O)N4CCOCC4)ccc3Cl)cn2c1 [Compound 216] | 5.35 | 5.50 | < 4.30 | 4.94 |  |  |  |  |  |  |
| Cc1nc(C)c(C(=O)Nc2ccc(F)c(-c3cn4cc(NC(=O)C5CCOC(C)(C)C5)cnc4n3)c2)o1 (stereo not drawn) [Compound 159] | 5.54 | 5.83 | 4.99 | 5.00 |  |  |  |  |  |  |
| Cc1nc(C)c(C(=O)Nc2ccc(F)c(-c3cn4cc(-c5cnccc5C)cnc4n3)c2)o1 [Compound 442] |  |  |  |  | 7.06 | 7.26 | 6.68 | 7.32 |  |  |
| CC(C)OC(=O)N(C)c1cnc2nc(-c3cc(NC(=O)c4ccc(Cl)o4)ccc3F)cn2c1 [Compound 550, isopropyl (2-(5-(5-chlorofuran-2-carboxamido)-2-fluorophenyl)imidazo[1,2-a]pyrimidin-6-yl)(methyl)carbamate] |  |  |  |  | 6.75 | 7.11 | 6.29 | 7.38 |  |  |
| CC(C)OC(=O)Nc1cnc2nc(-c3cc(NC(=O)/C=C/CN(C)C)ccc3F)cn2c1 [Compound 103] | 5.67 | 5.25 | 5.01 | 4.97 |  |  |  |  |  |  |
| CCN(C)C(=O)Nc1ccc(Cl)c(-c2cn3cc(NC(=O)OC(C)C)cnc3n2)c1 [Compound 250] | 6.30 | 6.95 | 6.08 | 6.20 |  |  |  |  |  |  |
| Cc1nc(C)c(C(=O)Nc2ccc(F)c(-c3cn4cc(NC(=O)c5ccc(OCCN6CCN(C)CC6)cc5)cnc4n3)c2)o1 [Compound 175] | < 4.60 | 5.35 | 4.90 | < 4.70 |  |  |  |  |  |  |
| CCN(CC)c1cnc2nc(-c3cc(NC(=O)c4oc(C)nc4C)ccc3F)cn2c1 [Compound 471] |  |  |  |  | 6.22 | 6.80 | 6.20 | 6.83 |  |  |
| COC(C)C(=O)Nc1cnc2nc(-c3cc(NC(=O)c4oc(C)nc4C)ccc3F)cn2c1 (stereo not drawn) [Compound 177] | 6.51 | 6.79 | 6.04 | 5.46 |  |  |  |  |  |  |
| CCN(C)C(=O)Nc1ccc(F)c(-c2cn3cc(C4=CCOCC4)cnc3n2)c1 [Compound 328] | 6.41 | 6.78 | 5.82 | 6.52 |  |  |  |  |  |  |
| Cc1nc(C)c(C(=O)Nc2ccc(F)c(-c3cn4cc(C5CCN(C(=O)OC(C)(C)C)CC5)cnc4n3)c2)o1 [Compound 425, tert-butyl 4-(2-(5-(2,4-dimethyloxazole-5-carboxamido)-2-fluorophenyl)imidazo[1,2-a]pyrimidin-6-yl)piperidine-1-carboxylate] |  |  |  |  | 6.85 | 7.01 | 6.70 | 7.30 |  |  |
| Cc1nc(C)c(C(=O)Nc2ccc(F)c(-c3cn4cc(-c5cncc(F)c5)cnc4n3)c2)o1 [Compound 443] |  |  |  |  | 7.09 | 7.47 | 6.84 | 6.99 |  |  |
| O=C(Nc1ccc(F)c(-c2cn3cc(-c4cccnc4)cnc3n2)c1)N1CC(F)C1 [Compound 401] |  |  |  |  | 7.03 | 7.47 | 6.58 | 6.35 |  |  |
| Cc1nc(C)c(C(=O)Nc2ccc(F)c(-c3cn4cc(C#CCCN5CCOCC5)cnc4n3)c2)o1 [Compound 544, N-(4-fluoro-3-(6-(4-morpholinobut-1-yn-1-yl)imidazo[1,2-a]pyrimidin-2-yl)phenyl)-2,4-dimethyloxazole-5-carboxamide] |  |  |  |  | 5.39 | < 4.30 | 4.72 | 5.40 |  |  |
| Cc1nc(C)c(C(=O)Nc2ccc(F)c(-c3cn4cc(-c5cccnc5)cnc4n3)c2)o1 [Compound 395] |  |  |  |  | 6.96 | 7.35 | 6.73 | 6.82 |  |  |
| Cc1nc(C)c(C(=O)Nc2ccc(F)c(-c3cn4cc(Nc5ncccc5C(F)(F)F)cnc4n3)c2)o1 [Compound 488] |  |  |  |  | 7.49 | 7.24 | 6.88 | 7.44 |  |  |
| CC(C)OC(=O)Nc1cnc2nc(-c3cc(NCC(=O)N4CCCC4)ccc3F)cn2c1 [Compound 560] |  |  |  |  | 5.01 | 5.25 | 4.53 |  | 12.1 µM |  |
| Cc1nc(C)c(C(=O)Nc2ccc(F)c(-c3cn4cc(NC(=O)C5(C)CCCCO5)cnc4n3)c2)o1 (stereo not drawn) [Compound 170] | 6.37 | 6.29 | 6.05 | 5.94 |  |  |  |  |  |  |
| Cc1nc(C)c(C(=O)Nc2ccc(F)c(-c3cn4cc(NC(=O)CC5CCCCO5)cnc4n3)c2)o1 (stereo not drawn) [Compound 155] | 5.81 | 6.10 | 5.43 | 5.62 |  |  |  |  |  |  |
| Nc1cnc2nc(-c3cc(NC(=O)c4ccc(F)o4)ccc3Cl)cn2c1 [Compound 577, N-(3-(6-aminoimidazo[1,2-a]pyrimidin-2-yl)-4-chlorophenyl)-5-fluorofuran-2-carboxamide] |  |  |  |  | 5.52 | 5.87 | < 4.30 | 5.63 |  |  |

| SMILES | pEC50 [1, 5] | pEC50 [2, 6] | pEC50 ([3]; inhibition of proliferation) | pEC50 ([4]; inhibition of proliferation) | pEC50 ([1]; L. donovani axenic amastigotes) | pEC50 [2, 7] | pEC50 [3] | pEC50 [4] | EC50 ([4]; read-out: T cruzi EC50 (μM)) | pEC50 [2] |
| --- | --- | --- | --- | --- | --- | --- | --- | --- | --- | --- |
| Cc1nc(C)c(C(=O)Nc2ccc(F)c(-c3cn4cc(N5C[C@@H](C)O[C@@H](C)C5)cnc4n3)c2)o1 [Compound 491] |  |  |  |  | 6.63 | 6.85 | 6.13 | 6.53 |  |  |
| CC(C)OC(=O)Nc1cnc2nc(-c3cc(NC(=O)N4CC[C@H](F)C4)ccc3F)cn2c1 [Compound 227] | 5.43 | 5.36 | < 4.30 | 5.31 |  |  |  |  |  |  |
| O=C(Nc1cnc2nc(-c3cc(NC(=O)N4CCCC4)ccc3F)cn2c1)c1ccc(F)cn1 [Compound 124] | 7.31 | 7.64 | 5.25 | 7.34 |  |  |  |  |  |  |
| CN(C)C(=O)Nc1ccc(F)c(-c2cn3cc(Cl)cnc3n2)c1 [Compound 225] | 5.79 | 6.33 | 5.08 | 5.92 |  |  |  |  |  |  |
| Cc1nc(C)c(C(=O)Nc2ccc(F)c(-c3cn4cc(-c5cnccn5)cnc4n3)c2)o1 [Compound 251] | 7.46 | 7.35 | 7.07 | 7.21 |  |  |  |  |  |  |
| COCC(=O)Nc1cnc2nc(-c3cc(NC(=O)N4CCCC4)ccc3F)cn2c1 [Compound 139] | 6.35 | 6.89 | 5.17 | 5.43 |  |  |  |  |  |  |
| Cc1nc(C(=O)Nc2ccc(Cl)c(-c3cn4cc(NC(=O)OC(C)C)cnc4n3)c2)c(C)o1 [Compound 46] | 5.86 | 5.52 | 5.30 | 6.58 |  |  |  |  |  |  |
| CC(C)OC(=O)Nc1cnc2nc(-c3cc(NC(N)=O)ccc3Cl)cn2c1 [Compound 252] | < 4.60 | 4.48 | < 4.30 | < 4.70 |  |  |  |  |  |  |
| CC(C)OC(=O)Nc1cnc2nc(-c3cc(NC(=O)N4CC[C@@H](F)C4)ccc3Cl)cn2c1 [Compound 267] | 6.31 | 6.94 | 5.74 | 5.72 |  |  |  |  |  |  |
| CC(C)OC(=O)Nc1cnc2nc(-c3cc(NC(=O)NC4CCC4)ccc3Cl)cn2c1 [Compound 269] | 5.02 | 5.45 | 4.82 | 5.38 |  |  |  |  |  |  |
| Cc1nc(C)c(C(=O)Nc2ccc(F)c(-c3cn4cc(NC(=O)c5ccc(CN(C)C)cc5)cnc4n3)c2)o1 [Compound 189] | 5.04 | 5.37 | 4.81 | 4.97 |  |  |  |  |  |  |
| O=C(Nc1ccc(F)c(-c2cn3cc(C(F)(F)F)cnc3n2)c1)N1CCC1 [Compound 299] | 7.04 | 7.47 | 6.75 | 7.35 |  |  |  |  |  |  |
| Cc1nc(C)c(C(=O)Nc2ccc(F)c(-c3cn4cc(NC(=O)c5oc(C)nc5C)cnc4n3)c2)o1 [Compound 150] | 6.27 | 6.30 | 4.36 | < 4.70 |  |  |  |  |  |  |
| O=C(Nc1ccc(F)c(-c2cn3cc(C4=CCOCC4)cnc3n2)c1)N1CC(F)(F)C1 [Compound 320] | 7.24 | 7.46 | 6.74 | 6.73 |  |  |  |  |  |  |
| Cc1nc(C)c(C(=O)Nc2ccc(F)c(-c3cn4cc(NC(=O)c5nc(NC(=O)OC(C)(C)C)cn5C)cnc4n3)c2)o1 [Compound 176] | < 4.60 | < 4.30 | < 4.30 | < 4.70 |  |  |  |  |  |  |
| CC(C)OC(=O)Nc1ccc(F)c(-c2cn3cc(C(F)(F)F)cnc3n2)c1 [Compound 301, isopropyl (4-fluoro-3-(6-(trifluoromethyl)imidazo[1,2-a]pyrimidin-2-yl)phenyl)carbamate] | 6.14 |  | < 4.49 | 6.35 |  |  |  |  |  | 6.51 |
| Cc1nc(C)c(C(=O)Nc2ccc(F)c(-c3cn4cc(-c5cc(F)ccn5)cnc4n3)c2)o1 [Compound 435] |  |  |  |  | 7.72 | 7.38 | 7.31 | 7.80 |  |  |
| Cc1nc(C)c(C(=O)Nc2ccc(F)c(-c3cn4cc(-c5cn(C)cn5)cnc4n3)c2)o1 [Compound 426, N-(4-fluoro-3-(6-(1-methyl-1H-imidazol-4-yl)imidazo[1,2-a]pyrimidin-2-yl)phenyl)-2,4-dimethyloxazole-5-carboxamide] |  |  |  |  | 7.80 | 6.42 | 6.74 | 6.91 |  |  |
| Cc1nc(C)c(C(=O)Nc2ccc(F)c(-c3cn4cc(NC5=NC(C)(C)CO5)cnc4n3)c2)o1 [Compound 505] |  |  |  |  | 5.93 | 6.07 | 5.46 | 5.30 |  |  |
